What is called EC50 is the concentration that produces a half-maximal response. Usually CC50 stands for the concentration at which the toxic effect on the cells reaches its halfway point. The EC90 is the concentration needed for an effect of 90%.

We go through 1 molecule from patent publication US12173029B2, “Antiviral prodrugs, pharmaceutical formulations, and methods” (priority 2020, dated 2024).

For one data set, the system named is SARS-CoV-2. In words: Example 7 SARS-CoV-2 antiviral activity, summary across the five cell types. It is filed as cell-based. As to conditions: Severe acute respiratory syndrome coronavirus 2; SARS-CoV-2, five cell types of Example 7; read-out: EC50, range across cell types.
A short description of data set [1]: Example 7 cell viability assay (CellTiter-Glo) in Huh7.5 cells. As to conditions: human.
Data set [2] has as its system SARS-CoV-2 isolate USA-WA1/2020. Put plainly: Example 7 SARS-CoV-2 infection in Caco-2 cells (qRT-PCR). It is filed as cell-based. As to conditions: Severe acute respiratory syndrome coronavirus 2; SARS-CoV-2, Caco-2 cells, MOI 0.01, 48 hours. A general note: Real-time PCR tracks product formation cycle by cycle.
Data set [3] has the same test system. In words: Example 7 SARS-CoV-2 infection in PSC-human lung cells (qRT-PCR). It is filed as cell-based. Conditions: Severe acute respiratory syndrome coronavirus 2; SARS-CoV-2, PSC-human lung cells, MOI 0.01, 48 hours.
Data set [4] is described as follows: Example 7 cytotoxicity, summary across all cell lines. It counts as cell-based. Conditions: monkey, human; five cell types of Example 7, 48 hours. The method, then: The cytotoxicity of each compound by incubating each of these cell lines with serial dilutions of each compound from 1.23 μM to 100 μM for 48 hours. […] The selectivity index of ODBG-P-RV ranged from 295 to 699 in the five cell types tested in this example).

The next data set concerns Human Coronavirus 229E. Put plainly: Example 8 human coronavirus 229E in MRC-5 cells (CPE, MTT). It is filed as cell-based. As for the experimental part:
Human Coronavirus 229E (ATCC) was propagated and infectious units quantified by TCID50 using MRC-5 cells. For antiviral testing, approximately 10^4 MRC-5 cells were seeded per well in EMEM (10% FCS) at 37 C in a 96 well plate overnight. Medium from each well was removed and cells were infected with 100 TCID50 virus in 100 μL medium for two hours.
Cells were washed one time with medium and then compounds or controls added at the indicated concentrations. After three days, CPE was observed under microscope and quantified using an MTT cell proliferation assay kit (Abcam) read on an ELx800, Universal Microplate reader (BIO-TEK Instruments, INC). The % Inhibition was calculated as (Atv−Acv)/(Acd−Acv)×100% where Atv indicates the absorbance of the test compounds with virus infected cells and A, and Aca indicate the absorbance of the virus control and the absorbance of the cell control, respectively. The average half-maximal effective concentration (EC50) was defined as the concentration which achieved 50% inhibition of virus-induced cytopathic effects.
FIG. 4A and FIG. 4B: ODBG-P-RVn (15d) inhibits the human Alphacoronavirus 229E. […] Cells were infected with 229E for 2 hours followed by treatment with the indicated dose of the indicated drug for 72 hours. The relative CPE was determined by measuring cell viability using an MTT assay.

The test system of data set [5] is SARS-CoV-2 isolate USA-WA1/2020. Put plainly: Example 3 SARS-CoV-2 infection in Vero E6 cells (qRT-PCR Spike RNA). Conditions: Severe acute respiratory syndrome coronavirus 2, Vero C1008; SARS-CoV-2 USA-WA1/2020, Vero E6 cells, MOI 0.01, 48 hours, mean±SD. It counts as cell-based.
Another data set deals with VERO E6 cells. In words: Example 4 generation of remdesivir triphosphate in Vero E6 cells (LC/MS/MS). It counts as in vitro ADME, monkey. Conditions: 1 μM drug, at 8 and 24 hours. As for the experimental part:
In this example, Vero E6 cells were plated in 6 well plates at about 3.4×10^5 cells per well in 2 mL of media (DMEM, 10% FBS).
Cells were then incubated at 37° C. for 24 hours. Media was then aspirated and replaced with 2 ml of control media (fresh Dulbecco's Modified Eagle's Medium (DMEM), 10% FBS) or 2 mL of media with drug at a concentration of 1 μM. Cell were incubated with the various drugs for 48 hours. The media was aspirated, the cells rinsed twice with phosphate-buffered saline (PBS), trypsinized for 5 minutes with 1 mL ATV, triturated and removed to a 15 mL centrifuge tube, rinsed with 1 mL PBS, which was also then removed to the 15 mL centrifuge tube, and the cells were triturated again. Cells were counted in a Reichert hemocytometer using two 10 μL samples, and the number of cells in each sample was determined.
Cells were centrifuged at 1200 rpm for 10 minutes, diluent aspirated and the pellet resuspended in 250 μL of methanol/distilled water (70/30) and analyzed by LC/MS/MS. The results, which are depicted at FIG. 3, were in picomoles/10^6 cells and are the average of two or three determinations.

Data set [6] is described as follows: Example 7 cell viability assay (CellTiter-Glo) in Vero E6 cells. As to conditions: monkey.
The conditions of data set [7]: after intravenous infusion; cited from earlier work.
Data set [8] can be described thus: Example 8 cytotoxicity in MRC-5 cells (CellTiter-Glo). It is filed as cell-based. As to conditions: human. As for the experimental part:
FIG. 4B depicts the cytotoxicity in MRC-5 cells incubated in the presence of the indicated drug at the indicated concentration for 72 hours, after which cell viability was measured by the CellTiter-Glo assay. Data points indicate the averages from 3 independent experiments performed in duplicate. Error bars represent the standard error mean (SEM).
(ATP-based viability assays read luminescence as a measure of living cells.)

Data set [9] is described as follows: Example 7 cell viability assay (CellTiter-Glo) in PSC-human lung cells.
In data set [10] the test system is SARS-CoV-2 isolate USA-WA1/2020. In words: Example 7 SARS-CoV-2 infection in Huh7.5 cells (qRT-PCR). It counts as cell-based. As to conditions: Severe acute respiratory syndrome coronavirus 2; SARS-CoV-2, Huh7.5 cells, MOI 0.01, 48 hours, qRT-PCR, Example 7.
Data set [11] shares this test system. Put plainly: Example 7 SARS-CoV-2 infection in Calu-3 cells (qRT-PCR). Conditions: Severe acute respiratory syndrome coronavirus 2; SARS-CoV-2, Calu-3 cells, MOI 0.01, 48 hours. It counts as cell-based.
The test system of data set [12] is USA WA-01 strain of SARS CoV-2. In words: Example 2 anti-coronavirus activity in Vero E6 cells (qPCR spike RNA). It is filed as cell-based. As to conditions: Vero C1008, SARS CoV-2 USA WA-01, Vero E6 cells, MOI 0.1, 48 hours. As for the experimental part: Ten thousand Vero E6 cells were seeded in 100 microliters of culture medium in 96 well plates. The following day serial two-fold dilutions of antiviral compounds or the DMSO-containing vehicle were added to each well. The USA WA-01 strain of SARS CoV-2 was added to each well at a multiplicity of infection of 0.1 thirty minutes later. Cells were incubated for 48 hours, washed twice in PBS and lysed with TRIzol. RNA was extracted using Directzol micro RNA columns. RNA was made into cDNA and assayed for the SARS CoV-2 spike protein and for a housekeeping gene (RPLPO) RNA by qPCR. Data represents the average of duplicate wells. Cellular cytotoxicity was also measured in VERO E6 cells. […] Cytotoxicity (CC50) was assessed using a commercially available MTT assay.

Consider `CCC(CC)COC(=O)[C@H](C)N[P@](=O)(OC[C@H]1O[C@@](C#N)(c2ccc3c(N)ncnn23)[C@H](O)[C@@H]1O)Oc1ccccc1` [RDV, Remdesivir], for which the EC50 in the data set on SARS-CoV-2 was 0.06 to 1.13 µM; in [2], 0.17 µM; in data set [3] it was 0.14 µM; in the data set with Human Coronavirus 229E (MRC5, 229E in MRC-5 cells, 72 hours, CPE by MTT, Example 8), 0.04 µM; in data set [5], 4.6 µM; in data set [10], 0.06 µM. Besides, the EC50 in data set [11] was found to be 0.23 µM; in data set [12], 3.16 µM. Moreover, the results for the CC50 at 48.5 h in data set [1], in [6] and in [9] were 15.2 µM, 101 µM and 32.7 µM, respectively. Moreover, the EC90 amounted to 0.28 µM in data set [2]; 0.23 µM in data set [3]; 0.26 µM with Human Coronavirus 229E (MRC5, 72 h); 8.9 ± 4.9 µM in data set [5]; 0.12 µM in data set [10]; 0.31 µM in data set [11]. In data set [12], this molecule gave an EC90 of 5.5 µM. For the same molecule, the CC50 at 48 h in [4] was at least 15.2 µM. In the data set with VERO E6 cells, the “levels of RVn-TP” value is listed as “below the level of quantification”. The “persistence in plasma at virologically significant levels” value in data set [7] is “less than 2 hours”. The molecule also came in with a CC50 at 72 h in data set [8] above 50 µM.
